Where two headings read alike, the source gives them in different places. Residues, ends and D or L forms follow the SMILES beside them. No end group written: not given here.
Experiments:
rabbit-lung ACE = molecular target: T1, rabbit-lung ACE (Oryctolagus cuniculus, UniProt P12822); test: ACE-inhibitory activity of synthetic peptides (fluorescence assay, substrate Abz-Gly-Phe(NO2)-Pro); type: biochemical; details: means ± SD of three different experiments, ND = not detected, read-out: ACEi Activity IC50 (µM) ± SD
T1 construct: rabbit-lung ACE (E.C.3.4.15.1., Sigma-Aldrich); purchased Sigma-Aldrich; host or cells: rabbit lung (tissue-derived enzyme)
T1 sequence (P12822 34-1310): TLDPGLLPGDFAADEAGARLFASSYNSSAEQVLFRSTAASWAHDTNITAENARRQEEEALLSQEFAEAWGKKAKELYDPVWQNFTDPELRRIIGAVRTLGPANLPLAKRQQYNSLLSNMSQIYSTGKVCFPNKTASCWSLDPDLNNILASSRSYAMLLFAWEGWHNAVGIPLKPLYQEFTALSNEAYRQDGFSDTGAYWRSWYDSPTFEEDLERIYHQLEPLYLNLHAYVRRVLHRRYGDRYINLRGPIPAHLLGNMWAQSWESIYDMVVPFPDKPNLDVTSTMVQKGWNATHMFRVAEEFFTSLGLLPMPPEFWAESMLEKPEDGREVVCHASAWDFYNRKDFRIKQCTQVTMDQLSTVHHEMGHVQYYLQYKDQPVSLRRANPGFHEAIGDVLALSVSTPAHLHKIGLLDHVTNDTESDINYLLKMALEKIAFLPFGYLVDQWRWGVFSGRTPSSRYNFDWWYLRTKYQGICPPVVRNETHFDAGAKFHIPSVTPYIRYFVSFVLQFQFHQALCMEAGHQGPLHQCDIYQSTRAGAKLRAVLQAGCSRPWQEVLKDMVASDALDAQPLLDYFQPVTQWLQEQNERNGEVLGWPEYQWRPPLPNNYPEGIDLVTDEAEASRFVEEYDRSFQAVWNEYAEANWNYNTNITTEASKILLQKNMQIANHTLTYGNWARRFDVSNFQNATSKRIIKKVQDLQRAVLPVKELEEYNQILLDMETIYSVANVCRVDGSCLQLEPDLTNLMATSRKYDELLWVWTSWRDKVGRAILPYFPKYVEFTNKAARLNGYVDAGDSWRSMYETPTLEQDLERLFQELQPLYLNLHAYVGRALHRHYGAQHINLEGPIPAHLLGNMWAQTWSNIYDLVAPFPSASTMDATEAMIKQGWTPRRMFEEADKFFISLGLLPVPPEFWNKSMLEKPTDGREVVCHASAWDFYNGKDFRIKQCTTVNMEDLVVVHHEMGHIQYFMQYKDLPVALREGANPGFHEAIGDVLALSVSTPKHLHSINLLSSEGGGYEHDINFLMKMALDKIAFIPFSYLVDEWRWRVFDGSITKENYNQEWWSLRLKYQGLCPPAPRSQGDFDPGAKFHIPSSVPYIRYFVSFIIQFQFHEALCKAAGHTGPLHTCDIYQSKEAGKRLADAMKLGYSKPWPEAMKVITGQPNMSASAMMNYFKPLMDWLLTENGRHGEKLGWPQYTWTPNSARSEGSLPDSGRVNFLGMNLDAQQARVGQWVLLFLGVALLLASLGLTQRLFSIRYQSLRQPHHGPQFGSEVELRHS
Protocol: The ACE-inhibitory activity of the synthetic peptides was determined according to the method described in [84], with some modifications. This assay is based on the ability of ACE to hydrolyse the substrate o-aminobenzoylglycyl-p-nitrophenylalanyl-proline (Abz-Gly-Phe-(NO2)-Pro, Bachem Feinchemikalien, Bubendorf, Switzerland), producing the fluorescent product o-aminobenzoylglycine (Abz-Gly). Reagents used include: buffer A: 150 mM Tris-HCl buffer (pH 8.3), with 0.1 µM ZnCl2; buffer B: 150 mM de Tris-HCl buffer (pH 8.4), with 1125 mM NaCl; ACE solution (stock): rabbit-lung ACE (E.C.3.4.15.1., Sigma-Aldrich), dissolved in buffer A containing 50% glycerol to make an enzyme concentration of 1 U/mL. This solution was diluted 1/20 with buffer A to obtain the working solution (50 mU/mL), which was prepared fresh every day to conduct the experiment. The substrate solution (Abz-Gly-Phe(NO2)-Pro) was dissolved in buffer B to a final concentration of 0.45 mM. This solution was also prepared every day before its use and was protected from light and kept at 4 °C. The assay was carried out using a fluorescence technique. Black polystyrene plates of 96 wells (Thermo Scientific, Waltham, Massachussets, USA) were used. The wells contained the following reaction solutions: control = 50 μL of Milli-Q water and 50 μL of ACE solution; blank = 50 μL of Milli-Q water and 50 μL of buffer A; sample = 50 μL of sample and 50 μL of ACE solution; sample blank = 50 μL of sample and 50 μL of buffer A. The enzymatic reaction was initiated by adding 200 μL (final volume in each well 300 μL) of substrate solution, and the plate was immediately mixed and incubated at 37 °C in a VICTORX5 fluorometer (PerkinElmer, USA). The fluorescence generated was measured after 30 min using 355 and 420 nm as excitation and emission wavelengths, respectively. The ACE-inhibitory activity of each sample was determined in triplicate. The ACE-inhibitory activity was calculated using the following formula: ACE inhibitory activity (%)=(FC−FB)−(FS−FBs)/FC−FB × 100 where FC (control) is the fluorescence emitted after the action of ACE on the substrate, without inhibitor (i.e., sample); FB (blank) is the fluorescence emitted by the substrate; FS (sample) is the fluorescence emitted after the action of ACE on the substrate, with inhibitor sample; and FBs (blank sample) are the fluorescences emitted by the substrate and the sample.
The ACE-inhibitory activity is expressed as IC50, which is the concentration of inhibitor required to inhibit the activity of ACE by 50%.

[1] = cited from earlier work
ACE = details: read-out: ACE inhibition IC50, cited from earlier work
[2] = system: pre- or hypertensive humans; set-up: method as in PMID 25608938; details: supplementation of pre- or hypertensive humans for longer than four weeks; meta-analysis of 30 trials; cited from earlier work

CC(C)[C@H](NC(=O)[C@H](CO)NC(=O)[C@H](Cc1ccc(O)cc1)NC(=O)[C@H](CS)NC(=O)[C@@H](N)CS)C(=O)N[C@@H](Cc1ccc(O)cc1)C(=O)O [Peptide no. 1 de novo, CCYSVY] (H-CCYSVY-OH)
IC50 (rabbit-lung ACE): 25.6 ± 0.41 µM

N[C@@H](CCC(=O)N[C@@H](CS)C(=O)NCC(=O)O)C(=O)O [glutathione]
antioxidant activity (TEAC) [1]: 0.9 TEAC

CPANGFY [Peptide no. 19, CPANGFY]
IC50 (rabbit-lung ACE): 3.76 ± 0.39 µM

DCHYFL [Peptide no. 2 de novo, DCHYFL]
IC50 (rabbit-lung ACE): 41.5 ± 2.09 µM

IPP
IC50 (ACE; peptides described in dairy): 5 µM
effect on systolic and diastolic blood pressure [2]: significant reduction in systolic and diastolic blood pressure

NALLCSNS [compound 18]
IC50 (rabbit-lung ACE): 0.98 ± 0.04 µM

SVY
IC50 (ACE; C-terminal di-/tripeptide of de novo peptide no. 1): 8.1 µM

VCGEAFGKA [Peptide no. 14]
IC50 (rabbit-lung ACE): 57.2 ± 4.31 µM

VPP
IC50 (ACE; peptides described in dairy): 9 µM
effect on systolic and diastolic blood pressure [2]: significant reduction in systolic and diastolic blood pressure

From publication PMC8836281, “Characterisation of Endogenous Peptides Present in Virgin Olive Oil” (International Journal of Molecular Sciences, 2022)
